We go through 10 molecules from patent publication US20240245793A1, “PSD-95 INHIBITORS AND USES THEREOF” (priority 2021, published 2024).

The subject of this data set is HeLa cells stably expressing HaloGFP. Nature of the data set: Chloroalkane penetration assay (CAPA), membrane permeability and cellular uptake. Format: cell-based. The text has this: Since PSD-95 is located intracellularly, it is essential for any drug targeting PSD-95 to efficiently cross the cell membrane. To assess the cellular permeability and delivery to the cytosol of the compounds as defined herein, the cellular chloroalkane penetration assay (CAPA) may be used (Peraro et al. 2018). This assay takes advantage of a modified haloalkane dehalogenase designed to covalently bind chloroalkane (CA) molecules. A HeLa cell line expressing a fusion protein comprising a HaloTag, a green fluorescent protein (GFP) and a mitochondria-targeting peptide is used to report cytosolic delivery. The general format of the CAPA is a pulse-chase assay (Deprey & Kritzer, 2020). Cells expressing the HaloTag enzyme are incubated with CA-tagged peptides. When these CA-peptides penetrate the cell membrane and reach the cytosol, they will bind to and react with the HaloTag (pulse step). Following a washing step, the cells are incubated with a CA-tagged dye that quantitatively penetrates the cell membrane and reacts with remaining unreacted HaloTag sites (chase step). Flow cytometry is used to measure the fluorescence intensity of the cells and the measured fluorescence is inversely proportional to the amount of CA-peptides that reach the penetrated the cells and can thus be used to assess cytosolic delivery. The obtained data is commonly expressed as CP50 values, the concentration at which 50% cell penetration is observed. The CP50 value of a compound may be measured as described in example 4.
The membrane permeability of compounds 10 to 75 was determined in HeLa cells stably expressing HaloGFP exclusively located in the cytosol. Cells were seeded at a density of 40.000 cells/well one day prior to the experiment. After the growth media was aspirated and replaced by 100 μL of Opti-MEM, 25 μL of a prepared serial dilution of the ligand in Opti-MEM was added to the cells (constant DMSO concentration), and the plate was incubated for 4 h at 37° C. and 5% CO2. The contents of the wells were aspirated, and cells were washed with fresh Opti-MEM for 15 min. After aspiration of the wash, the cells were incubated with TAMRA-CA (5 μM) for 15 min. After aspiration of the chase solution, cells were washed with Opti-MEM for 30 min. Following removal of the wash, cells were trypsinized, resuspended in PBS (2% FBS), and analyzed using a benchtop flow cytometer. Using no ligand and no TAMRA-CA control well, the obtained fluorescence intensity data was normalized and plotted as dose-response curves. Reported CP50 values represent half-maximum red fluorescence which behaves inverse to cell penetration of the ligand.

Where two headings read alike, the source gives them in different places.

For `CC(C)[C@H](NC(=O)[C@H](CCCNC(=N)N)NC(=O)[C@@H](NC(=O)[C@H](CCC(=O)O)NC(=O)[C@H](CCCCN)NC(=O)CCOCCOCCN(CCOCCOCCC(=O)N[C@@H](CCCCN)C(=O)N[C@@H](CCC(=O)O)C(=O)N[C@H](C(=O)N[C@@H](CCCNC(=N)N)C(=O)N[C@H](C(=O)O)C(C)C)[C@@H](C)O)C(=O)[C@H](CCCNC(=N)N)NC(=O)[C@H](CCCNC(=N)N)NC(=O)[C@H](CCCNC(=N)N)NC(=O)[C@H](CCCNC(=N)N)NC(=O)[C@H](CCCNC(=N)N)NC(=O)[C@H](CCCNC(=N)N)NC(=O)[C@H](CCCNC(=N)N)NC(=O)[C@H](CCCNC(=N)N)NC(=O)[C@H](CCCNC(=N)N)NC(=O)CCC(=O)NCCOCCOCCCCCCCl)[C@@H](C)O)C(=O)O` [Compound 30], the CP50 came to 0.68 ± 0.05 µM.

As for `CC[C@H](C)[C@H](NC(=O)CCOCCOCCN(CCOCCOCCC(=O)N[C@H](C(=O)N[C@@H](CO)C(=O)N[C@H](C(=O)N[C@@H](CC(=O)O)C(=O)N[C@H](C(=O)O)C(C)C)[C@@H](C)O)[C@@H](C)CC)C(=O)[C@H](CCCNC(=N)N)NC(=O)[C@H](CCCNC(=N)N)NC(=O)[C@H](CCCNC(=N)N)NC(=O)[C@H](CCCNC(=N)N)NC(=O)[C@H](CCCNC(=N)N)NC(=O)[C@H](CCCNC(=N)N)NC(=O)[C@H](CCCNC(=N)N)NC(=O)[C@H](CCCNC(=N)N)NC(=O)[C@H](CCCNC(=N)N)NC(=O)CCC(=O)NCCOCCOCCCCCCCl)C(=O)N[C@@H](CO)C(=O)N[C@H](C(=O)N[C@@H](CC(=O)O)C(=O)N[C@H](C(=O)O)C(C)C)[C@@H](C)O` [Compound 32], the CP50 worked out at 1.05 ± 0.15 µM.

`CC(C)[C@H](NC(=O)[C@@H](NC(=O)[C@@H](NC(=O)[C@H](CCC(=O)O)NC(=O)[C@@H](NC(=O)CCOCCOCCN(CCOCCOCCC(=O)N[C@H](C(=O)N[C@@H](CCC(=O)O)C(=O)N[C@H](C(=O)N[C@H](C(=O)N[C@H](C(=O)O)C(C)C)C(C)C)[C@@H](C)O)C(C)C)C(=O)[C@H](CCCNC(=N)N)NC(=O)[C@H](CCCNC(=N)N)NC(=O)[C@H](CCCNC(=N)N)NC(=O)[C@H](CCCNC(=N)N)NC(=O)[C@H](CCCNC(=N)N)NC(=O)[C@H](CCCNC(=N)N)NC(=O)[C@H](CCCNC(=N)N)NC(=O)[C@H](CCCNC(=N)N)NC(=O)[C@H](CCCNC(=N)N)NC(=O)CCC(=O)NCCOCCOCCCCCCCl)C(C)C)[C@@H](C)O)C(C)C)C(=O)O` [Compound 34] came in with a CP50 of 0.84 ± 0.15 µM.

On to `CC[C@H](C)[C@H](NC(=O)CCOCCOCCN(CCOCCOCCC(=O)N[C@H](C(=O)N[C@@H](CCC(=O)O)C(=O)N[C@H](C(=O)N[C@@H](CC(=O)O)C(=O)N[C@H](C(=O)O)C(C)C)[C@@H](C)O)[C@@H](C)CC)C(=O)[C@@H](CCCNC(=N)N)NC(=O)[C@@H](CCCNC(=N)N)NC(=O)[C@@H](CCCNC(=N)N)NC(=O)[C@@H](CCC(N)=O)NC(=O)[C@@H](CCCNC(=N)N)NC(=O)[C@@H](CCCNC(=N)N)NC(=O)[C@@H](CCCCN)NC(=O)[C@@H](CCCCN)NC(=O)[C@@H](CCCNC(=N)N)NC(=O)CNC(=O)[C@@H](Cc1ccc(O)cc1)NC(=O)CCC(=O)NCCOCCOCCCCCCCl)C(=O)N[C@@H](CCC(=O)O)C(=O)N[C@H](C(=O)N[C@@H](CC(=O)O)C(=O)N[C@H](C(=O)O)C(C)C)[C@@H](C)O` [Compound 39], for which, under “CA-tagged NPEG4-(IETDV)2 with various CPP-tags, 4 h at 37° C., mean ± SEM (Table 11, FIG. 8)”, the CP50 is 10.7 ± 0.7 µM.

`CC[C@H](C)[C@H](NC(=O)CCOCCOCCN(CCOCCOCCC(=O)N[C@H](C(=O)N[C@@H](CCC(=O)O)C(=O)N[C@H](C(=O)N[C@@H](CC(=O)O)C(=O)N[C@H](C(=O)O)C(C)C)[C@@H](C)O)[C@@H](C)CC)C(=O)[C@@H](CCCNC(=N)N)NC(=O)[C@H](CCCNC(=N)N)NC(=O)[C@@H](CCCCN)NC(=O)[C@H](CCCCN)NC(=O)[C@@H](CCCNC(=N)N)NC(=O)CNC(=O)[C@@H](CCCNC(=N)N)NC(=O)[C@H](CCCNC(=N)N)NC(=O)[C@@H](CCCNC(=N)N)NC(=O)CCC(=O)NCCOCCOCCCCCCCl)C(=O)N[C@@H](CCC(=O)O)C(=O)N[C@H](C(=O)N[C@@H](CC(=O)O)C(=O)N[C@H](C(=O)O)C(C)C)[C@@H](C)O` [Compound 41] gave a CP50 of 180 ± 8.2 µM.

In turn, `CC[C@H](C)[C@H](NC(=O)CCOCCOCCN(CCOCCOCCC(=O)N[C@H](C(=O)N[C@@H](CCC(=O)O)C(=O)N[C@H](C(=O)N[C@@H](CC(=O)O)C(=O)N[C@H](C(=O)O)C(C)C)[C@@H](C)O)[C@@H](C)CC)C(=O)[C@@H](CCCNC(=N)N)NC(=O)[C@@H](CCCCN)NC(=O)[C@@H](CCCCN)NC(=O)[C@@H](CCCNC(=N)N)NC(=O)[C@@H](CCCNC(=N)N)NC(=O)[C@@H](CCC(N)=O)NC(=O)[C@@H](CCCNC(=N)N)NC(=O)[C@@H](CCCNC(=N)N)NC(=O)[C@@H](CCCNC(=N)N)NC(=O)CCC(=O)NCCOCCOCCCCCCCl)C(=O)N[C@@H](CCC(=O)O)C(=O)N[C@H](C(=O)N[C@@H](CC(=O)O)C(=O)N[C@H](C(=O)O)C(C)C)[C@@H](C)O` [Compound 43] came in with a CP50 of 221 ± 36 µM.

`CC[C@H](C)[C@H](NC(=O)CCOCCOCCN(CCOCCOCCC(=O)N[C@H](C(=O)N[C@@H](CCC(=O)O)C(=O)N[C@H](C(=O)N[C@@H](CC(=O)O)C(=O)N[C@H](C(=O)O)C(C)C)[C@@H](C)O)[C@@H](C)CC)C(=O)[C@@H](CCCNC(=N)N)NC(=O)[C@@H](CCCNC(=N)N)NC(=O)[C@@H](CCCNC(=N)N)NC(=O)[C@@H](CCCNC(=N)N)NC(=O)[C@@H](CCCNC(=N)N)NC(=O)[C@@H](CCCNC(=N)N)NC(=O)[C@@H](CCCNC(=N)N)NC(=O)[C@@H](CCCNC(=N)N)NC(=O)[C@@H](CCCNC(=N)N)NC(=O)CCC(=O)NCCOCCOCCCCCCCl)C(=O)N[C@@H](CCC(=O)O)C(=O)N[C@H](C(=O)N[C@@H](CC(=O)O)C(=O)N[C@H](C(=O)O)C(C)C)[C@@H](C)O` [Compound 45]: the CP50 worked out at 161 ± 25 µM.

Take `CC[C@H](C)[C@H](NC(=O)CCOCCOCCN(CCOCCOCCC(=O)N[C@H](C(=O)N[C@@H](CCC(=O)O)C(=O)N[C@H](C(=O)N[C@@H](CC(=O)O)C(=O)N[C@H](C(=O)O)C(C)C)[C@@H](C)O)[C@@H](C)CC)C(=O)[C@H](CO)NC(=O)[C@H](CCC(=O)O)NC(=O)[C@H](CCCNC(=N)N)NC(=O)[C@H](CCCNC(=N)N)NC(=O)[C@H](CCCNC(=N)N)NC(=O)[C@H](CCCCN)NC(=O)[C@H](CCCCN)NC(=O)[C@H](CCCNC(=N)N)NC(=O)[C@H](CO)NC(=O)[C@H](CCC(=O)O)NC(=O)[C@H](CCCNC(=N)N)NC(=O)[C@H](CCCNC(=N)N)NC(=O)[C@H](CCCNC(=N)N)NC(=O)[C@H](CCCCN)NC(=O)[C@H](CCCCN)NC(=O)[C@H](CCCNC(=N)N)NC(=O)CCC(=O)NCCOCCOCCCCCCCl)C(=O)N[C@@H](CCC(=O)O)C(=O)N[C@H](C(=O)N[C@@H](CC(=O)O)C(=O)N[C@H](C(=O)O)C(C)C)[C@@H](C)O` [Compound 51]: the CP50 was 3.2 ± 0.5 µM.

With `CC[C@H](C)[C@H](NC(=O)CCOCCOCCN(CCOCCOCCC(=O)N[C@H](C(=O)N[C@@H](CCC(=O)O)C(=O)N[C@H](C(=O)N[C@@H](CC(=O)O)C(=O)N[C@H](C(=O)O)C(C)C)[C@@H](C)O)[C@@H](C)CC)C(=O)[C@H](CCCCN)NC(=O)[C@H](CO)NC(=O)[C@H](Cc1c[nH]cn1)NC(=O)[C@H](C)NC(=O)[C@H](Cc1c[nH]cn1)NC(=O)[C@H](C)NC(=O)[C@H](CCC(N)=O)NC(=O)[C@H](CCCCN)NC(=O)[C@H](CCCNC(=N)N)NC(=O)[C@@H](NC(=O)[C@H](CCCNC(=N)N)NC(=O)[C@H](CCCNC(=N)N)NC(=O)[C@H](CCCNC(=N)N)NC(=O)[C@H](CC(C)C)NC(=O)[C@@H](NC(=O)[C@@H](NC(=O)[C@H](CC(C)C)NC(=O)[C@H](CC(C)C)NC(=O)CCC(=O)NCCOCCOCCCCCCCl)[C@@H](C)CC)[C@@H](C)CC)[C@@H](C)CC)C(=O)N[C@@H](CCC(=O)O)C(=O)N[C@H](C(=O)N[C@@H](CC(=O)O)C(=O)N[C@H](C(=O)O)C(C)C)[C@@H](C)O` [Compound 53], the CP50 came out at 1.7 ± 0.1 µM.

Regarding `CC[C@H](C)[C@H](NC(=O)CCOCCOCCN(CCOCCOCCC(=O)N[C@H](C(=O)N[C@@H](CCC(=O)O)C(=O)N[C@H](C(=O)N[C@@H](CC(=O)O)C(=O)N[C@H](C(=O)O)C(C)C)[C@@H](C)O)[C@@H](C)CC)C(=O)[C@H](C)NC(=O)[C@H](CC(C)C)NC(=O)[C@H](CCCCN)NC(=O)[C@H](CC(C)C)NC(=O)[C@H](C)NC(=O)[C@H](C)NC(=O)[C@H](CCCCN)NC(=O)[C@H](CC(C)C)NC(=O)[C@H](C)NC(=O)[C@H](CCCCN)NC(=O)[C@H](CC(C)C)NC(=O)[C@H](C)NC(=O)[C@H](CC(C)C)NC(=O)[C@H](CCCCN)NC(=O)[C@H](CC(C)C)NC(=O)[C@H](C)NC(=O)[C@H](CC(C)C)NC(=O)[C@H](CCCCN)NC(=O)CCC(=O)NCCOCCOCCCCCCCl)C(=O)N[C@@H](CCC(=O)O)C(=O)N[C@H](C(=O)N[C@@H](CC(=O)O)C(=O)N[C@H](C(=O)O)C(C)C)[C@@H](C)O` [Compound 55], the CP50 came out at 3.7 ± 0.3 µM.
